Legend:
[1] = in vivo; settings: BALB/c, mouse, 2.5 mg/kg
[2] = clinical; settings: for Cmax / Tmax / AUC(0-t): human
Procedure: Clinical Trial Outline. […] All solid tumor types are eligible for the trial. […] An expansion cohort was included at the RP2D level to confirm safety and tolerability of the combination. […] In Part 2, patients were treated by giving both agents twice daily (BID dosing schedule).
Plasma samples were analyzed for AMXT 1501 concentration via a LC/MS^2 procedure (MI-0028-DB-AB; Agilux Laboratories, Worcester, Massachusetts), and the resulting concentration versus time data were used to estimate individual PK parameters using noncompartmental analysis (NCA).

[3] = Part 1 Cohort 1, 80 mg QD, Cycle 1 Day 1
[4] = Part 1 Cohort 1, 80 mg QD, Cycle 1 Day 14
[5] = Part 1 Cohort 1, 80 mg QD, Cycle 1 Day 28, +DFMO 500 mg/day
[6] = Part 1 Cohort 2, 160 mg QD, Cycle 1 Day 1
[7] = Part 1 Cohort 2, 160 mg QD, Cycle 1 Day 14
[8] = Part 1 Cohort 2, 160 mg QD, Cycle 1 Day 28, +DFMO 500 mg/day
[9] = Part 1 Cohort 3, 400 mg QD, Cycle 1 Day 14
[10] = Part 1 Cohort 3, 400 mg QD, Cycle 1 Day 28, +DFMO 500 mg/day
[11] = Part 1 Cohort 3, 400 mg QD, Day 1
[12] = Part 1 Cohort 4, 1200 mg QD, Cycle 1 Day 1
[13] = Part 1 Cohort 4, 1200 mg QD, Cycle 1 Day 14
[14] = Part 1 Cohort 5, 1800 mg QD, Cycle 1 Day 1
[15] = Part 1 Cohort 5, 1800 mg QD, Cycle 1 Day 14
[16] = Part 1 Cohort 5, 1800 mg QD, Cycle 1 Day 28, +DFMO 500 mg/day
[17] = Part 1 Cohort 5, 1800 mg QD, Cycle 2 Day 14, n=1

CCCCCCCCCCCCCCCC(=O)NCCCC[C@@H](N)C(=O)NCCCNCCCCNCCCN [AMXT 1501, D-lys(palmitoyl)-spermine]
AUC ([1]; plasma, sc): 8270 ng·h/mL
AUC(0-inf) ([1]; plasma, sc): 8890 ng·h/mL
Cmax ([1]; plasma, sc): 978 ng/mL
Kp ([1]; tumor and plasma, sc): 15.5
Kp at 72 h ([1]; tumor and plasma, sc): 894
Kp ([1]; tumor and plasma, subcutaneous): 18
concentration at 72 h ([1]; tumor, subcutaneous): ~1000 ng/mL
Cohort 5 patient AUC versus mouse plasma AUC at efficacious dose ([2]; Cohort 5 patients vs 2.5 mg/kg SC in 4T1 mice): 1.72 times
Tlast Mean [2, 3]: 13.2 h
Tlast Median [2, 3]: 6 h
Tlast Mean [2, 4]: 12 h
Tlast Median [2, 4]: 6 h
Tlast Mean [2, 5]: 18 h
Tlast Median [2, 5]: 24 h
Tlast Mean [2, 6]: 15 h
Tlast Median [2, 6]: 15 h
Tlast Mean [2, 7]: 15 h
Tlast Median [2, 7]: 15 h
Tlast Mean [2, 8]: 10.5 h
Tlast Median [2, 8]: 6 h
Tlast Mean [2, 9]: 19.5 h
Tlast Median [2, 9]: 24 h
Tlast Mean [2, 10]: 24 h
Tlast Median [2, 10]: 24 h
Tlast Mean [2, 11]: 25.5 h
Tlast Median [2, 11]: 24 h
Tlast Mean [2, 12]: 40 h
Tlast Median [2, 12]: 24 h
Tlast Mean [2, 13]: 24 h
Tlast Median [2, 13]: 24 h
Tlast Mean [2, 14]: 54 h
Tlast Median [2, 14]: 60 h
Tlast Mean [2, 15]: 24 h
Tlast Median [2, 15]: 24 h
Tlast Mean [2, 16]: 24 h
Tlast Median [2, 16]: 24 h
Tlast Mean [2, 17]: 24 h
Tlast Median [2, 17]: 24 h
sustained plasma level versus predicted efficacious concentration (100 nM, 57 ng/mL) ([2]; adult patients, 1,200 mg or 800 mg per day, split BID): above this predicted efficacious concentration value
Cmax ([2]; in vivo, 160 mg, Cmax Mean, Part 1 Cohort 2, 160 mg QD, Cycle 1 Day 1): 19.5 ng/mL
Tmax ([2]; in vivo, 1800 mg, Tmax Mean, Part 1 Cohort 5, 1800 mg QD, Cycle 1 Day 1): 10.5 h
AUC(0-t) ([2]; plasma, oral, 80 mg, AUC0-6 hr Mean, Part 1 Cohort 1, 80 mg QD, Cycle 1 Day 1): 29.6 ng·h/mL
AUC(0-t) ([2]; plasma, oral, 80 mg, AUC0-6 hr Mean, Part 1 Cohort 1, 80 mg QD, Cycle 1 Day 14): 91 ng·h/mL
AUC(0-t) ([2]; plasma, oral, 80 mg, AUC0-6 hr Median, Part 1 Cohort 1, 80 mg QD, Cycle 1 Day 1): 29.9 ng·h/mL
AUC(0-t) ([2]; plasma, oral, 80 mg, AUC0-6 hr Median, Part 1 Cohort 1, 80 mg QD, Cycle 1 Day 14): 51.3 ng·h/mL
AUC(0-t) ([2]; plasma, oral, 80 mg, AUC0-t Mean, Part 1 Cohort 1, 80 mg QD, Cycle 1 Day 1): 92 ng·h/mL
AUC(0-t) ([2]; plasma, oral, 80 mg, AUC0-t Mean, Part 1 Cohort 1, 80 mg QD, Cycle 1 Day 14): 262 ng·h/mL
AUC(0-t) ([2]; plasma, oral, 80 mg, AUC0-t Median, Part 1 Cohort 1, 80 mg QD, Cycle 1 Day 1): 45.3 ng·h/mL
AUC(0-t) ([2]; plasma, oral, 80 mg, AUC0-t Median, Part 1 Cohort 1, 80 mg QD, Cycle 1 Day 14): 51.3 ng·h/mL
Cmax ([2]; plasma, oral, 80 mg, Cmax Mean, Part 1 Cohort 1, 80 mg QD, Cycle 1 Day 1): 11.7 ng/mL
Cmax ([2]; plasma, oral, 80 mg, Cmax Mean, Part 1 Cohort 1, 80 mg QD, Cycle 1 Day 14): 26.2 ng/mL
Cmax ([2]; plasma, oral, 80 mg, Cmax Median, Part 1 Cohort 1, 80 mg QD, Cycle 1 Day 1): 10.6 ng/mL
Cmax ([2]; plasma, oral, 80 mg, Cmax Median, Part 1 Cohort 1, 80 mg QD, Cycle 1 Day 14): 13.8 ng/mL
Tmax ([2]; plasma, oral, 80 mg, Tmax Mean, Part 1 Cohort 1, 80 mg QD, Cycle 1 Day 1): 4.8 h
Tmax ([2]; plasma, oral, 80 mg, Tmax Mean, Part 1 Cohort 1, 80 mg QD, Cycle 1 Day 14): 4.67 h
Tmax ([2]; plasma, oral, 80 mg, Tmax Median, Part 1 Cohort 1, 80 mg QD, Cycle 1 Day 1): 4 h
Tmax ([2]; plasma, oral, 80 mg, Tmax Median, Part 1 Cohort 1, 80 mg QD, Cycle 1 Day 14): 4 h
AUC(0-t) ([2]; plasma, oral, 160 mg, AUC0-6 hr Mean, Part 1 Cohort 2, 160 mg QD, Cycle 1 Day 1): 74.8 ng·h/mL
AUC(0-t) ([2]; plasma, oral, 160 mg, AUC0-6 hr Mean, Part 1 Cohort 2, 160 mg QD, Cycle 1 Day 14): 43.4 ng·h/mL
AUC(0-t) ([2]; plasma, oral, 160 mg, AUC0-6 hr Median, Part 1 Cohort 2, 160 mg QD, Cycle 1 Day 1): 67.1 ng·h/mL
AUC(0-t) ([2]; plasma, oral, 160 mg, AUC0-6 hr Median, Part 1 Cohort 2, 160 mg QD, Cycle 1 Day 14): 49.8 ng·h/mL
AUC(0-t) ([2]; plasma, oral, 160 mg, AUC0-t Mean, Part 1 Cohort 2, 160 mg QD, Cycle 1 Day 1): 169 ng·h/mL
AUC(0-t) ([2]; plasma, oral, 160 mg, AUC0-t Mean, Part 1 Cohort 2, 160 mg QD, Cycle 1 Day 14): 105 ng·h/mL
AUC(0-t) ([2]; plasma, oral, 160 mg, AUC0-t Median, Part 1 Cohort 2, 160 mg QD, Cycle 1 Day 1): 130 ng·h/mL
AUC(0-t) ([2]; plasma, oral, 160 mg, AUC0-t Median, Part 1 Cohort 2, 160 mg QD, Cycle 1 Day 14): 59.7 ng·h/mL
Cmax ([2]; plasma, oral, 160 mg, Cmax Mean, Part 1 Cohort 2, 160 mg QD, Cycle 1 Day 14): 14.1 ng/mL
Cmax ([2]; plasma, oral, 160 mg, Cmax Median, Part 1 Cohort 2, 160 mg QD, Cycle 1 Day 1): 17.8 ng/mL
Cmax ([2]; plasma, oral, 160 mg, Cmax Median, Part 1 Cohort 2, 160 mg QD, Cycle 1 Day 14): 16.2 ng/mL
Tmax ([2]; plasma, oral, 160 mg, Tmax Mean, Part 1 Cohort 2, 160 mg QD, Cycle 1 Day 1): 4 h
Tmax ([2]; plasma, oral, 160 mg, Tmax Mean, Part 1 Cohort 2, 160 mg QD, Cycle 1 Day 14): 5 h
Tmax ([2]; plasma, oral, 160 mg, Tmax Median, Part 1 Cohort 2, 160 mg QD, Cycle 1 Day 1): 4 h
Tmax ([2]; plasma, oral, 160 mg, Tmax Median, Part 1 Cohort 2, 160 mg QD, Cycle 1 Day 14): 5 h
AUC(0-t) ([2]; plasma, oral, 400 mg, AUC0-6 hr Mean, Part 1 Cohort 3, 400 mg QD, Cycle 1 Day 14): 289 ng·h/mL
AUC(0-t) ([2]; plasma, oral, 400 mg, AUC0-6 hr Mean, Part 1 Cohort 3, 400 mg QD, Day 1): 183 ng·h/mL
AUC(0-t) ([2]; plasma, oral, 400 mg, AUC0-6 hr Median, Part 1 Cohort 3, 400 mg QD, Cycle 1 Day 14): 304 ng·h/mL
AUC(0-t) ([2]; plasma, oral, 400 mg, AUC0-6 hr Median, Part 1 Cohort 3, 400 mg QD, Day 1): 207 ng·h/mL
AUC(0-t) ([2]; plasma, oral, 400 mg, AUC0-t Mean, Part 1 Cohort 3, 400 mg QD, Cycle 1 Day 14): 957 ng·h/mL
AUC(0-t) ([2]; plasma, oral, 400 mg, AUC0-t Mean, Part 1 Cohort 3, 400 mg QD, Day 1): 714 ng·h/mL
AUC(0-t) ([2]; plasma, oral, 400 mg, AUC0-t Median, Part 1 Cohort 3, 400 mg QD, Cycle 1 Day 14): 1100 ng·h/mL
AUC(0-t) ([2]; plasma, oral, 400 mg, AUC0-t Median, Part 1 Cohort 3, 400 mg QD, Day 1): 906 ng·h/mL
Cmax ([2]; plasma, oral, 400 mg, Cmax Mean, Part 1 Cohort 3, 400 mg QD, Cycle 1 Day 14): 66.4 ng/mL
Cmax ([2]; plasma, oral, 400 mg, Cmax Mean, Part 1 Cohort 3, 400 mg QD, Day 1): 47 ng/mL
Cmax ([2]; plasma, oral, 400 mg, Cmax Median, Part 1 Cohort 3, 400 mg QD, Cycle 1 Day 14): 73.5 ng/mL

Source: US20230321012A1 (priority 2021, published 2023)
